Legend:
[1] = Radioactivity expressed as percent injected dose per gram after single intravenous injection of 50 uCi after 60 min in rat adrenals;n =4; assay type: ADME, tissue-based, Adrenal gland; details: in vivo, 1 h
[2] = Radioactivity expressed as percent injected dose per gram after single intravenous injection of 50 uCi after 5 min in rat lung;n =4; assay type: ADME; details: in vivo
[3] = Radioactivity expressed as percent injected dose per gram after single intravenous injection of 50 uCi after 60 min in rat femur;n =4; assay type: ADME, tissue-based; details: in vivo, 1 h
[4] = Activity distribution of compound in blocked (hydrocortisone) rat brain hippocampus after single iv injection of 0.9 mCi at 60 min after injection by ex vivo autoradiography; assay type: ADME, organism-based; details: 1 h
[5] = Radioactivity expressed as percent injected dose per gram after single intravenous injection of 50 uCi after 5 min in rat kidney;n =4; assay type: ADME, tissue-based; details: in vivo
[6] = Radioactivity expressed as percent injected dose per gram after single intravenous injection of 50 uCi after 60 min in rat hard glands;n =4; assay type: ADME; details: in vivo, 1 h
[7] = Radioactivity expressed as percent injected dose per gram after single intravenous injection of 50 uCi after 5 min in rat blood;n =4; assay type: ADME; details: in vivo
[8] = Radioactivity expressed as percent injected dose per gram after single intravenous injection of 50 uCi after 60 min in rat pancreas;n =4; assay type: ADME; details: in vivo, 1 h
[9] = Radioactivity expressed as percent injected dose per gram after single intravenous injection of 50 uCi after 5 min in rat femur;n =4; assay type: ADME, tissue-based; details: in vivo
[10] = Radioactivity expressed as percent injected dose per gram after single intravenous injection of 50 uCi after 5 min in rat brain;n =4; assay type: ADME, tissue-based; details: in vivo
[11] = Radioactivity expressed as percent injected dose per gram after single intravenous injection of 50 uCi after 5 min in rat thymus;n =4; assay type: ADME; details: in vivo
[12] = Radioactivity expressed as percent injected dose per gram after single intravenous injection of 50 uCi after 5 min in rat adrenals;n =4; assay type: ADME, tissue-based, Adrenal gland; details: in vivo
[13] = Radioactivity expressed as percent injected dose per gram after single intravenous injection of 50 uCi after 5 min in rat liver;n =4; assay type: ADME, tissue-based; details: in vivo
[14] = Radioactivity expressed as percent injected dose per gram after single intravenous injection of 50 uCi after 5 min in rat fat;n =4; assay type: ADME; details: in vivo
[15] = Radioactivity expressed as percent injected dose per gram after single intravenous injection of 50 uCi after 5 min in rat testis;n =4; assay type: ADME; details: in vivo
[16] = Radioactivity expressed as percent injected dose per gram after single intravenous injection of 50 uCi after 60 min in rat liver;n =4; assay type: ADME, tissue-based; details: in vivo, 1 h
[17] = Radioactivity expressed as percent injected dose per gram after single intravenous injection of 50 uCi after 5 min in rat hard glands;n =4; assay type: ADME; details: in vivo
[18] = Radioactivity expressed as percent injected dose per gram after single intravenous injection of 50 uCi after 60 min in rat fat;n =4; assay type: ADME; details: in vivo, 1 h
[19] = Radioactivity expressed as percent injected dose per gram after single intravenous injection of 50 uCi after 60 min in rat kidney;n =4; assay type: ADME, tissue-based; details: in vivo, 1 h
[20] = Radioactivity expressed as percent injected dose per gram after single intravenous injection of 50 uCi after 60 min in rat pituitary;n =4; assay type: ADME; details: in vivo, 1 h
[21] = Radioactivity expressed as percent injected dose per gram after single intravenous injection of 50 uCi after 5 min in rat pituitary;n =4; assay type: ADME; details: in vivo
[22] = Activity distribution of compound in blocked (hydrocortisone) rat brain inferior coliculi after single iv injection of 0.9 mCi at 60 min after injection by ex vivo autoradiography; assay type: ADME, organism-based; details: 1 h
[23] = Radioactivity expressed as percent injected dose per gram after single intravenous injection of 50 uCi after 5 min in rat spleen;n =4; assay type: ADME, tissue-based; details: in vivo
[24] = Radioactivity expressed as percent injected dose per gram after single intravenous injection of 50 uCi after 60 min in rat heart;n =4; assay type: ADME; details: in vivo, 1 h
[25] = Radioactivity expressed as percent injected dose per gram after single intravenous injection of 50 uCi after 60 min in rat muscle;n =4; assay type: ADME, tissue-based, Muscle tissue; details: in vivo, 1 h
[26] = Radioactivity expressed as percent injected dose per gram after single intravenous injection of 50 uCi after 60 min in rat brain;n =4; assay type: ADME, tissue-based; details: in vivo, 1 h
[27] = Activity distribution of compound in blocked (hydrocortisone) rat brain pituitary after single iv injection of 0.9 mCi at 60 min after injection by ex vivo autoradiography; assay type: ADME, organism-based; details: 1 h
[28] = Activity distribution of compound in blocked (hydrocortisone) rat brain plexus choroideus after single iv injection of 0.9 mCi at 60 min after injection by ex vivo autoradiography; assay type: ADME, organism-based; details: 1 h
[29] = Radioactivity expressed as percent injected dose per gram after single intravenous injection of 50 uCi after 5 min in rat pancreas;n =4; assay type: ADME; details: in vivo
[30] = Radioactivity expressed as percent injected dose per gram after single intravenous injection of 50 uCi after 5 min in rat muscle;n =4; assay type: ADME, tissue-based, Muscle tissue; details: in vivo
[31] = Activity distribution of compound in blocked (hydrocortisone) rat brain cerebellar nuclei after single iv injection of 0.9 mCi at 60 min after injection by ex vivo autoradiography; assay type: ADME, organism-based; details: 1 h
[32] = Radioactivity expressed as percent injected dose per gram after single intravenous injection of 50 uCi after 60 min in rat blood;n =4; assay type: ADME; details: in vivo, 1 h
[33] = Radioactivity expressed as percent injected dose per gram after single intravenous injection of 50 uCi after 60 min in rat thymus;n =4; assay type: ADME; details: in vivo, 1 h
[34] = Radioactivity expressed as percent injected dose per gram after single intravenous injection of 50 uCi after 60 min in rat spleen;n =4; assay type: ADME, tissue-based; details: in vivo, 1 h
[35] = Activity distribution of compound in blocked (hydrocortisone) rat brain cortex after single iv injection of 0.9 mCi at 60 min after injection by ex vivo autoradiography; assay type: ADME, organism-based; details: 1 h
[36] = Radioactivity expressed as percent injected dose per gram after single intravenous injection of 50 uCi after 60 min in rat testis;n =4; assay type: ADME; details: in vivo, 1 h
[37] = Radioactivity expressed as percent injected dose per gram after single intravenous injection of 50 uCi after 60 min in rat lung;n =4; assay type: ADME; details: in vivo, 1 h
[38] = Radioactivity expressed as percent injected dose per gram after single intravenous injection of 50 uCi after 60 min in rat brown fat;n =4; assay type: ADME; details: in vivo, 1 h
[39] = Radioactivity expressed as percent injected dose per gram after single intravenous injection of 50 uCi after 5 min in rat brown fat;n =4; assay type: ADME; details: in vivo
[40] = Radioactivity expressed as percent injected dose per gram after single intravenous injection of 50 uCi after 5 min in rat heart;n =4; assay type: ADME; details: in vivo

In the case of C[C@]12Cc3cnn(-c4ccc(F)cc4)c3C=C1CCC1C2[C@@H](O)C[C@@]2(C)C1CC[C@]2(O)C(=O)C[18F] (stereo not given in full), the ID/g [1] is reported as 1.96%, the ID/g [2] is reported as 0.6% and the ID/g [3] is reported as 0.22%. The ID/g [4] was 0.59%, the ID/g [5] was 0.66% and the ID/g [6] was 0.55%. For the same molecule, the ID/g [7] was 0.06%, the ID/g [8] was 0.85% and the ID/g [9] was 0.34%. For the same molecule, the ID/g [10] was 0.26%, the ID/g [11] was 0.37% and the ID/g [12] was 1.23%. For the same molecule, the ID/g [13] was 1.3%, the ID/g [14] was 0.82% and the ID/g [15] was 0.18%. It also gave an ID/g [16] of 2.15%, an ID/g [17] of 1.09% and an ID/g [18] of 0.31%. For the same molecule, the ID/g [19] was 0.87%, the ID/g [20] was 0.82% and the ID/g [21] was 0.52%. It also gave an ID/g [22] of 0.89%, an ID/g [23] of 0.4% and an ID/g [24] of 0.66%. The ID/g [25] was 0.32%, the ID/g [26] was 0.25% and the ID/g [27] was 1.36%. The ID/g [28] was 0.83%, the ID/g [29] was 0.85% and the ID/g [30] was 0.31%. For the same molecule, the ID/g [31] was 0.94%, the ID/g [32] was 0.08% and the ID/g [33] was 0.4%. For the same molecule, the ID/g [34] was 0.44%, the ID/g [35] was 0.7% and the ID/g [36] was 0.07%. The ID/g [37] was 0.66%, the ID/g [38] was 0.91% and the ID/g [39] was 0.8%. It also gave an ID/g [40] of 0.63%.
